Laboratory results published in patent US7432093B2, “Soluble, functional apoptotic protease-activating factor 1 fragments” (The Trustees of Princeton University, priority 2004, dated 2008).
Entries after “also recorded” stand apart in the source; their conditions may differ.

Key:
[1] = molecular target: T1, caspase-9 activation by the soluble Apaf-1 fragment (Homo sapiens, UniProt O14727); test: Caspase-9 activation assay (fluorogenic, LEHD-AMC); assay type: biochemical; settings: for Apaf-1-mediated caspase-9 activation by nucleotide with EDTA (hydrolysis blocked): 1 millimolar EDTA; for Apaf-1-mediated caspase-9 activation by nucleotide with EDTA (hydrolysis blocked) / Apaf-1-mediated caspase-9 activation by nucleotide: FIG. 6B/6C; for Apaf-1-mediated caspase-9 activation by nucleotide: Apaf-1 2 micromolar, caspase-9 0.2 micromolar, no EDTA
T1 construct: Leu-Glu-His6 (C); made in house; host or cells: Escherichia coli BL21(DE3), pET29 (both proteins)
T1 sequence (O14727 1-591): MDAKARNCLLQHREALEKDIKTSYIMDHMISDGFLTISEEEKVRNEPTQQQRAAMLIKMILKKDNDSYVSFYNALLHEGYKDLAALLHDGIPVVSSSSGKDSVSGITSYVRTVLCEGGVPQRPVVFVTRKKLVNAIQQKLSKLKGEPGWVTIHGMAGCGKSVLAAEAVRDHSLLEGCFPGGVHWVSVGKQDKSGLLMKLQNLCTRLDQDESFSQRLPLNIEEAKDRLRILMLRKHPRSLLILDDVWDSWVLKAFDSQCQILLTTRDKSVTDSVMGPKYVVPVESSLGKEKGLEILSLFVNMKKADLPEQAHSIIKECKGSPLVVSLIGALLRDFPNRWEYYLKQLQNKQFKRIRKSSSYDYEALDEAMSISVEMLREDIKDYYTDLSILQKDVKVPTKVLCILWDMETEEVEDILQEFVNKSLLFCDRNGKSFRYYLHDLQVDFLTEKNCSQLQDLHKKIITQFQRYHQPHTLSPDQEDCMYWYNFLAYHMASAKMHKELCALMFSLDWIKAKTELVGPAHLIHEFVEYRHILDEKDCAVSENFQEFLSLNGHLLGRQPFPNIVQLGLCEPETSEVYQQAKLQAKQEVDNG
T1 sequence (P55211 1-315 partner limits assumed): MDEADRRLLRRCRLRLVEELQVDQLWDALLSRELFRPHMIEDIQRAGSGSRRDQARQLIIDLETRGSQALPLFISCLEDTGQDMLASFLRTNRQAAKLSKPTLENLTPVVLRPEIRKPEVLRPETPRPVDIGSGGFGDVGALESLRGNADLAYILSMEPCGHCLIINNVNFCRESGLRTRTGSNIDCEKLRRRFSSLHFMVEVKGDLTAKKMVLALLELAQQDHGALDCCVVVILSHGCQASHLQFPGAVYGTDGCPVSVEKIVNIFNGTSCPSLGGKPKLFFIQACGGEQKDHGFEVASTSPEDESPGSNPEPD
T1 sequence (P55211 331-416 partner limits assumed): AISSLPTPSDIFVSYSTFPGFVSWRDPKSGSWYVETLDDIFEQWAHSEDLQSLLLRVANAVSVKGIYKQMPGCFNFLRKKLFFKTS
Procedure: A fluorogenic assay was developed to monitor caspase-9 activation by the soluble Apaf-1 fragment. […] Then, caspase-9 and Apaf-1 were added to a final volume of 200 microliter and final concentrations of 0.2 micromolar and 2 micromolar, respectively. After incubation for 5 minutes at room temperature, the caspase-9 substrate LEHD-AMC (a tetrapeptide coupled to 7-amino […]) was added to the reaction at a final concentration of 200 micromolar. The conversion of the fluorogenic substrate was then measured using a Hitachi F2500 fluorescence spectrophotometer with an excitation wavelength of 380 nanometers and a fluorescence detection wavelength of 440 nanometers.

[2] = assay type: physicochemical, E. coli
Procedure: Preferably, solubility of the fragment is assessed in a lysate of a bacterial culture used to produce the fragment at a concentration of at least 1 milligram per liter of bacterial culture.
All constructs for protein expression were generated using a standard PCR-based cloning strategy, and the identity of individual clones was verified by double-stranded plasmid sequencing. A soluble Apaf-1 fragment (residues 1-591, sequence (SEQ ID NO: 1) shown in FIG. 1) was over-expressed in Escherichia coli strain BL21(DE3) using plasmid vector pET29 having the nucleotide sequence described by Jiang et al. (2000, J. Biol. Chem. 275:31199-31203) operatively ligated therein. The coding sequence included an additional sequence encoding eight amino acid residues at its carboxy-terminal end (i.e., linked to residue 591 in the translated protein). These residues (Leu-Glu-His6) included a nickel-binding hexa-histidine sequence used for metal affinity chromatographic purification of the expressed protein. Soluble Apaf-1 was purified from the cell lysate using a Ni-NTA (nitrilotriacetic acid-ligated nickel; Qiagen) chromatography column. Dithiothreitol (DTT) and ethylenediamine tetraacetic acid (EDTA) were added to the eluted fraction in final concentrations of 5 millimolar each. After incubation for 30 minutes on ice, the protein solution was applied to an anion-exchange column (Source-15Q, Pharmacia) for further purification.

[3] = molecular target: T2, soluble Apaf-1 fragment (residues 1-591) (Homo sapiens, UniProt O14727); test: ATPase assay (TLC, conversion of (alpha-32P)ATP to ADP); assay type: biochemical
T2 construct: Leu-Glu-His6 (C); made in house; host or cells: Escherichia coli BL21(DE3), pET29
T2 sequence (O14727 1-591): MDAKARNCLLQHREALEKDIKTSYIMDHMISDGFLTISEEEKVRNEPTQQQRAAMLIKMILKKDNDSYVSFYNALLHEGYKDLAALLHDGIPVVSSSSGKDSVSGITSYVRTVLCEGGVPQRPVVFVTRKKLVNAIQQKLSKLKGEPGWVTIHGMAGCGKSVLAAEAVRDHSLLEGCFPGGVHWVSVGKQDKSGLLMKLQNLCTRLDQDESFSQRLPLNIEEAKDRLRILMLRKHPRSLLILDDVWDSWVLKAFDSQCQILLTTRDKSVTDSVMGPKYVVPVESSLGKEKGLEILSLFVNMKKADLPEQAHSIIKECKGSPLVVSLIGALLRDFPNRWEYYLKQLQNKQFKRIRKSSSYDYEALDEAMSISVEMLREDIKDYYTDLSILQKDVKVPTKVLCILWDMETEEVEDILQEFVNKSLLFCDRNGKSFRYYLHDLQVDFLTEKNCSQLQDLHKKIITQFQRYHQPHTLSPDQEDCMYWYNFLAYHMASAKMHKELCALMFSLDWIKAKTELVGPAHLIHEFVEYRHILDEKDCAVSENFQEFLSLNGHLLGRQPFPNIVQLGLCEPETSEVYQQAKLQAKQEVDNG
Procedure: ATPase activity was determined using a thin layer chromatography (TLC) assay designed to quantitatively measure the conversion of (alpha-^32P)ATP to ADP. Reactions were initiated by mixing the soluble Apaf-1 fragment at a final concentration of 2 micromolar with a solution containing 20 millimolar HEPES, pH 7.5, 10 millimolar DTT, 10 micromolar magnesium chloride, 0.1 micromolar (alpha-^32P)ATP, and 8 micromolar ATP. The reaction was incubated at room temperature for the indicated duration and then quenched by addition of an equal volume of developing solvent (1 molar formic acid, 0.5 molar LiCl). Samples were evaluated based on the differential mobility of ATP versus ADP on TLC using polyethyleneimine-cellulose F plates.

## CSc1nc(N)c2ncn([C@@H]3O[C@H](COP(=O)(O)OP(=O)(O)OP(=O)(O)O)[C@@H](O)[C@H]3O)c2n1 [APM, 2-methylthio-ATP]
[1]
  Apaf-1-mediated caspase-9 activation by nucleotide with EDTA (hydrolysis blocked): abrogated this effect
  Apaf-1-mediated caspase-9 activation by nucleotide: supported Apaf-1-mediated caspase-9 activation

## Nc1ncnc2c1ncn2[C@@H]1O[C@H](COP(=O)(O)OP(=O)(O)OP(O)(O)=S)[C@@H](O)[C@H]1O [ATP-gamma-S]
[1]
  Apaf-1-mediated caspase-9 activation by nucleotide: unable to support caspase-9 activation

## Nc1ncnc2c1ncn2[C@@H]1O[C@H](COP(=O)(O)OP(=O)(O)OP(=O)(O)O)[C@@H](O)[C@H]1O [ATP]
[1]
  Apaf-1-mediated caspase-9 activation by nucleotide with EDTA (hydrolysis blocked): completely abolished the positive effect of ATP
  Apaf-1-mediated caspase-9 activation by nucleotide: further drastically improved caspase-9 activity

## Nc1nc(Cl)nc2c1ncn2[C@H]1C[C@H](O)[C@@H](COP(=O)(O)OP(=O)(O)OP(=O)(O)O)O1 [Fragment 2CdATP]
[1]
  optimal concentration for caspase-9 activation: approximately 100 micromolar
  Apaf-1-mediated caspase-9 activation by nucleotide with EDTA (hydrolysis blocked): loss of this response
  Apaf-1-mediated caspase-9 activation by nucleotide: potent activator for caspase-9 activation

## Nc1ncnc2c1ncn2[C@H]1C[C@H](O)[C@@H](COP(=O)(O)OP(=O)(O)OP(=O)(O)O)O1 [dATP]
[1]
  optimal concentration for caspase-9 activation: 1 to 5 µM
  Apaf-1-mediated caspase-9 activation by nucleotide with EDTA (hydrolysis blocked): completely abolished caspase-9 activation
[1]; above the optimal range of 1-5 micromolar
  Apaf-1-mediated activation of caspase-9 at higher concentrations: reduced slightly
[1]; nucleotide at 2 micromolar
  caspase-9 activation compared with ATP: greater activation of caspase-9 than did ATP

B1: 1-591: soluble human Apaf-1 fragment, residues 1-591 (SEQ ID NO: 1), expressed in E. coli BL21(DE3) with C-terminal Leu-Glu-His6 (protein, listed as Homo sapiens)
chain: MDAKARNCLLQHREALEKDIKTSYIMDHMISDGFLTISEEEKVRNEPTQQQRAAMLIKMILKKDNDSYVSFYNALLHEGYKDLAALLHDGIPVVSSSSGKDSVSGITSYVRTVLCEGGVPQRPVVFVTRKKLVNAIQQKLSKLKGEPGWVTIHGMAGCGKSVLAAEAVRDHSLLEGCFPGGVHWVSVGKQDKSGLLMKLQNLCTRLDQDESFSQRLPLNIEEAKDRLRILMLRKHPRSLLILDDVWDSWVLKAFDSQCQILLTTRDKSVTDSVMGPKYVVPVESSLGKEKGLEILSLFVNMKKADLPEQAHSIIKECKGSPLVVSLIGALLRDFPNRWEYYLKQLQNKQFKRIRKSSSYDYEALDEAMSISVEMLREDIKDYYTDLSILQKDVKVPTKVLCILWDMETEEVEDILQEFVNKSLLFCDRNGKSFRYYLHDLQVDFLTEKNCSQLQDLHKKIITQFQRYHQPHTLSPDQEDCMYWYNFLAYHMASAKMHKELCALMFSLDWIKAKTELVGPAHLIHEFVEYRHILDEKDCAVSENFQEFLSLNGHLLGRQPFPNIVQLGLCEPETSEVYQQAKLQAKQEVDNG
modifications: C-terminal Leu-Glu-His6 tag
[2]
  Solubility: ++++
  solubility and solution behavior (in words): good solubility and solution behavior
[3]; 2 micromolar fragment, magnesium present, room temperature, FIG. 6A
  ATPase activity (appearance of ADP on TLC): exhibited ATPase activity
[3]; EDTA added (magnesium removed), FIG. 6A lane 3
  ATPase activity on incubation with EDTA: abrogation of the observed ATPase activity
[1]; absence of ATP and of the apoptosome
  catalytic activity of caspase-9 in the presence of Apaf-1: significantly and reproducibly elevated; also recorded: significantly improved the caspase catalytic activity

B2: 94-591: recombinant Apaf-1 fragment, residues 94-591 of SEQ ID NO: 1 (protein, listed as Homo sapiens)
chain: VSSSSGKDSVSGITSYVRTVLCEGGVPQRPVVFVTRKKLVNAIQQKLSKLKGEPGWVTIHGMAGCGKSVLAAEAVRDHSLLEGCFPGGVHWVSVGKQDKSGLLMKLQNLCTRLDQDESFSQRLPLNIEEAKDRLRILMLRKHPRSLLILDDVWDSWVLKAFDSQCQILLTTRDKSVTDSVMGPKYVVPVESSLGKEKGLEILSLFVNMKKADLPEQAHSIIKECKGSPLVVSLIGALLRDFPNRWEYYLKQLQNKQFKRIRKSSSYDYEALDEAMSISVEMLREDIKDYYTDLSILQKDVKVPTKVLCILWDMETEEVEDILQEFVNKSLLFCDRNGKSFRYYLHDLQVDFLTEKNCSQLQDLHKKIITQFQRYHQPHTLSPDQEDCMYWYNFLAYHMASAKMHKELCALMFSLDWIKAKTELVGPAHLIHEFVEYRHILDEKDCAVSENFQEFLSLNGHLLGRQPFPNIVQLGLCEPETSEVYQQAKLQAKQEVDNG
[2]
  Solubility: ++

B3: Full Length Apaf-1: full-length (ca. 140-kilodalton) human Apaf-1 protein expressed in E. coli (protein, listed as Homo sapiens)
chain: MDAKARNCLLQHREALEKDIKTSYIMDHMISDGFLTISEEEKVRNEPTQQQRAAMLIKMILKKDNDSYVSFYNALLHEGYKDLAALLHDGIPVVSSSSGKDSVSGITSYVRTVLCEGGVPQRPVVFVTRKKLVNAIQQKLSKLKGEPGWVTIHGMAGCGKSVLAAEAVRDHSLLEGCFPGGVHWVSVGKQDKSGLLMKLQNLCTRLDQDESFSQRLPLNIEEAKDRLRILMLRKHPRSLLILDDVWDSWVLKAFDSQCQILLTTRDKSVTDSVMGPKYVVPVESSLGKEKGLEILSLFVNMKKADLPEQAHSIIKECKGSPLVVSLIGALLRDFPNRWEYYLKQLQNKQFKRIRKSSSYDYEALDEAMSISVEMLREDIKDYYTDLSILQKDVKVPTKVLCILWDMETEEVEDILQEFVNKSLLFCDRNGKSFRYYLHDLQVDFLTEKNCSQLQDLHKKIITQFQRYHQPHTLSPDQEDCMYWYNFLAYHMASAKMHKELCALMFSLDWIKAKTELVGPAHLIHEFVEYRHILDEKDCAVSENFQEFLSLNGHLLGRQPFPNIVQLGLCEPETSEVYQQAKLQAKQEVDNG
[2]
  Solubility: −

B4: 1-469: recombinant Apaf-1 fragment, residues 1-469 of SEQ ID NO: 1 (protein, listed as Homo sapiens)
chain: MDAKARNCLLQHREALEKDIKTSYIMDHMISDGFLTISEEEKVRNEPTQQQRAAMLIKMILKKDNDSYVSFYNALLHEGYKDLAALLHDGIPVVSSSSGKDSVSGITSYVRTVLCEGGVPQRPVVFVTRKKLVNAIQQKLSKLKGEPGWVTIHGMAGCGKSVLAAEAVRDHSLLEGCFPGGVHWVSVGKQDKSGLLMKLQNLCTRLDQDESFSQRLPLNIEEAKDRLRILMLRKHPRSLLILDDVWDSWVLKAFDSQCQILLTTRDKSVTDSVMGPKYVVPVESSLGKEKGLEILSLFVNMKKADLPEQAHSIIKECKGSPLVVSLIGALLRDFPNRWEYYLKQLQNKQFKRIRKSSSYDYEALDEAMSISVEMLREDIKDYYTDLSILQKDVKVPTKVLCILWDMETEEVEDILQEFVNKSLLFCDRNGKSFRYYLHDLQVDFLTEKNCSQLQDLHKKIITQFQRYHQ
[2]
  Solubility: +
